Entries after “also recorded” stand apart in the source; their conditions may differ.
Key:
[1] = system: acute self-limiting colitis in mice; experiment: Histological scoring of inflammation, C. rodentium colitis in germ-free mice colonized with B. ovatus (Example 3); assay type: in vivo; settings: for Crypt Height / Epithelia Hyperplasia / Epithelial Injury / Fibrosis / Globlet cell / Inflamm / Mitotic Act.: gavage 3 days, prednisolone forms 1 mg/kg/day, dexamethasone forms 0.6 mg/kg/day; for Crypt Height / Epithelia Hyperplasia / Epithelial Injury / Fibrosis / Globlet cell / Inflamm / Mitotic Act. / Total Score: n=2; for Total Score: sum of each scoring category; for acute inflammation in the proximal and distal colon, histopathologically / efficacy compared with the uncaged drug: gnotobiotic mice colonized by B. ovatus; for efficacy compared with the uncaged drug: Example 3 conclusions
[2] = system: interleukin-12p70 (IL-12p70); experiment: Protein markers of inflammation in colonic tissue (Example 7); assay type: in vivo; settings: infected female mice; compared to uncaged PRED or DEXA
Procedure: (§1) Approval to conduct this project was obtained from the AAFC LeRDC Animal Care Committee (Animal Use Protocol 1911). […] The methods employed were essentially the same as those described in Example 3, except that the Citrobacter rodentium (CR) was administered to incite acute self-limiting colitis in mice prior to colonization with Bacteroides ovatus (BO). […] FIG. 20 provides a schematic illustrating the study design and timelines.
(§2) As in the study described in Example 3, there were gross histopathological differences in the distal colon tissue obtained from mice in the different treatment groups. Histological scoring of inflammation was performed by a board-certified pathologist blinded to treatment. […] Following CR infection, with no treatment, neutrophil infiltration was evident and the histological score was 10. […] Evidence of enhanced amelioration of protein markers of inflammation were also observed. […] IL-12p70 is a pro-inflammatory cytokine involved in cell-mediated immunity. For example, it is known as a T cell-stimulating factor, which can stimulate the growth and function of T cells. Moreover, it stimulates the production of interferon-gamma (IFN-γ) and tumor necrosis factor-alpha (TNF-α) from T cells and natural killer (NK) cells, and reduces IL-4 mediated suppression of IFN-γ.

[3] = system: acute self-limiting colitis in mice; experiment: Histological scoring of inflammation, C. rodentium colitis in mice with normal enteric microbiota (Example 7); assay type: in vivo; settings: for histological score, distal colon: CR+/BO+ mice, prednisolone forms 1 mg/kg, dexamethasone forms 1.5 mg/kg (equivalent), one day following steroid treatment; for efficacy compared with the uncaged drug, histologically: Example 7 conclusions; for colitis in the colon, histopathologically: colitis incited by Citrobacter rodentium, mice colonized by Bacteroides ovatus
Procedure: as §1, §2

[4] = molecular target: Bacteroides ovatus GH5 endo-xyloglucanase (Bacteroides ovatus, UniProt A7LXT7); experiment: Hydrolysis of glyco-caged prodrugs by BoGH5A, copper-bicinchoninic acid (BCA) reducing-sugar assay; assay type: biochemical; settings: sodium citrate buffer, pH 6.5
Sequence of Bacteroides ovatus GH5 endo-xyloglucanase (A7LXT7 33-502): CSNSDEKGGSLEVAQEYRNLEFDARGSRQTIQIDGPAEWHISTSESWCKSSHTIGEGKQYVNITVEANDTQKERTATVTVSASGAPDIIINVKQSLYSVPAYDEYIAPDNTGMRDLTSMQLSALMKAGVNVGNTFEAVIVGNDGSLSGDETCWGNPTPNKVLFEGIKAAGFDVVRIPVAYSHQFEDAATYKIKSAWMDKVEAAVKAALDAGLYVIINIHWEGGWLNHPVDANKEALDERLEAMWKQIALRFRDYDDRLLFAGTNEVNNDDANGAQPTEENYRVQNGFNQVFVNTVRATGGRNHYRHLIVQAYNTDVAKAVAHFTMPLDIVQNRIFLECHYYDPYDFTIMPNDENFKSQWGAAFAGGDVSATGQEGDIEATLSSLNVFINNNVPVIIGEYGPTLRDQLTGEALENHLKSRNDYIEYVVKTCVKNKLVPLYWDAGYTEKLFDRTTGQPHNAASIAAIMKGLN
From the text: DOI:10.1007/978-1-4939-6899-2 1.

[5] = system: acute self-limiting colitis in mice; experiment: Gross visual observations of the murine abdomen (Example 3); assay type: in vivo; settings: necropsy after 3 days of steroid gavage
From the text: Under isoflurane anesthesia, mice were terminally bled by cardiac puncture and then humanely euthanized by cervical dislocation. All collected blood was separated into serum that was dedicated for steroid detection and optimization of steroid detection procedures. Following euthanasia, a midline laparotomy was made and gross observations of the abdominal regions were photo-documented. Approximately 1 cm sections of the cecum, and the most proximal and distal portions of the colon were divided for histological examination. Cecal and colonic tissues were flash frozen in liquid nitrogen for future immunological protein quantification. Digesta extracted from the colon was stored at −80° C. for future steroid detection, and fresh feces from the cages were used to enumerate Bacteroides ovatus and Citrobacter rodentium by microbiological techniques on the same day as the necropsy.

[6] = system: IL-1β, IL-6, IL-22, TNF-α; experiment: Tissue cytokine detection by ELISA in cecal and colonic homogenates (Example 3); assay type: in vivo, mice; settings: for decreasing pro-inflammatory cytokines (IL-1β and TNF-α) and increasing IL-22 in intestinal tissues: compared with uncaged drugs
Procedure: Cecal and colonic homogenate for each mouse was prepared using the tissues suspended in an immunoprecipitation buffer at a ratio of 1:5 (wt/vol, adapted from Burgos-Ramos E. et al. 2012. “Adipose tissue promotes a serum cytokine profile related to lower insulin sensitivity after chronic central leptin infusion”. PLoS One Vol 7(10): e46893) with the addition of 1% Protease Inhibitor Cocktail (Sigma Aldrich). Frozen tissue sections were immediately homogenized using a Tissue-Tearor® model 398 homogenizer (Biospec Products) and centrifuged (14 000×g for 30 min at 4° C.). Supernatants were collected and used immediately for cytokine profiling. Cecal and colonic cytokine concentrations were measured for each treatment group by enzyme-linked immunosorbent assay (ELISA). Cytokines included in the analysis were interleukin-1 beta (IL-1β); IL-6; IL-10; IL-22; and tumour necrosis factor alpha (TNF-α). All cytokines were quantified using mouse DuoSet ELISA Development kits according to the manufacturer's protocols (R&D Systems). ELISAs were performed using 96-well high-binding half area microplates (Greiner Bio-One), and the optical density of the reactions were determined at wavelength of 450 nm on a Synergy HT™ multi-detection microplate reader (BioTek Instruments Inc.) with Gen5™ analysis software (BioTek Instruments Inc.).

[7] = cecal tissue homogenates, compared to the free steroids, n=2

| SMILES | Crypt Height ([1]; cecal tissue) | Epithelia Hyperplasia ([1]; cecal tissue) | Epithelial Injury ([1]; cecal tissue) | Fibrosis ([1]; cecal tissue) | Globlet cell ([1]; cecal tissue) | Inflamm ([1]; cecal tissue) | Mitotic Act. ([1]; cecal tissue) | Total Score ([1]; cecal tissue) | Crypt Height ([1]; distal colon) | Epithelia Hyperplasia ([1]; distal colon) | Epithelial Injury ([1]; distal colon) | Fibrosis ([1]; distal colon) | Globlet cell ([1]; distal colon) | Inflamm ([1]; distal colon) | Mitotic Act. ([1]; distal colon) | Total Score ([1]; distal colon) | Crypt Height ([1]; proximal colon) | Epithelia Hyperplasia ([1]; proximal colon) | Epithelial Injury ([1]; proximal colon) | Fibrosis ([1]; proximal colon) | further results |
| --- | --- | --- | --- | --- | --- | --- | --- | --- | --- | --- | --- | --- | --- | --- | --- | --- | --- | --- | --- | --- | --- |
| C[C@@H]1C[C@H]2[C@@H]3CCC4=CC(=O)C=C[C@]4(C)[C@@]3(F)[C@@H](O)C[C@]2(C)[C@@]1(O)C(=O)CO[C@@H]1OC(CO)[C@@H](O[C@@H]2OC(CO[C@H]3OC[C@@H](O)C(O)C3O)[C@@H](O[C@@H]3OC(CO[C@H]4OC[C@@H](O)C(O)C4O)[C@@H](O[C@@H]4OC(CO[C@H]5OC[C@@H](O)C(O)C5O)[C@@H](O)C(O)C4O)C(O)C3O)C(O)C2O)C(O)C1O (stereo partly drawn) [XXXG-DEXA, XXXG-β-O-dexamethasone] | 1 | 1 | 1 | 1.5 | 0.5 | 2 | 1.5 | 8.5 | 1.5 | 1.5 | 1 | 0 | 0 | 1 | 1 | 6 | 2 | 1.5 | 2 | 0 | amelioration of colitis in the cecum and proximal colon, caged drugs compared ([1]; colitis incited by Citrobacter rodentium): more effective than XXXG-PRED; caged drugs compared in the distal colon ([1]; distal colon): equal scores; acute inflammation in the proximal and distal colon, histopathologically [1]: ameliorate acute inflammation; efficacy compared with the uncaged drug [1]: greater efficacy than uncaged dexamethasone; injury and inflammation intensities, distal colon ([1]; histologic examination): lessened the injury and inflammation intensities; injury and inflammation intensity, ceca and proximal colon tissues ([1]; histologic examination): less injury and inflammation intensity than the other treatments; Globlet cell ([1]; proximal colon): 0; Inflamm ([1]; proximal colon): 1; Mitotic Act. ([1]; proximal colon): 1.5; Total Score ([1]; proximal colon): 8; quantities of interleukin-12p70 (IL-12p70) protein in colonic tissue [2]: significantly lower; histological score, distal colon [3]: 2; efficacy compared with the uncaged drug, histologically [3]: greater efficacy than uncaged dexamethasone histologically; colitis in the colon, histopathologically [3]: ameliorate colitis; hydrolysis of the prodrug (release of the active drug) [4]: demonstrated; cecal and colonic thickening (gross observation) [5]: less cecal and colonic thickening than uncaged dexamethasone; IL-1β concentration in cecal tissue [6, 7]: decreased; TNF-α concentration in cecal tissue [6, 7]: decreased; decrease of IL-6 concentration in cecal tissue [6, 7]: more effective than XXXG-PRED; decreasing pro-inflammatory cytokines (IL-1β and TNF-α) and increasing IL-22 in intestinal tissues [6]: more effective than the uncaged drugs |
| COC(=O)c1cc(N)ccc1O[C@@H]1OC(CO)[C@@H](O[C@@H]2OC(CO[C@H]3OC[C@@H](O)C(O)C3O)[C@@H](O[C@@H]3OC(CO[C@H]4OC[C@@H](O)C(O)C4O)[C@@H](O[C@@H]4OC(CO[C@H]5OC[C@@H](O)C(O)C5O)[C@@H](O)C(O)C4O)C(O)C3O)C(O)C2O)C(O)C1O (stereo partly drawn) [XXXG-5ASAME, XXXG-β-O-mesalazineME] |  |  |  |  |  |  |  |  |  |  |  |  |  |  |  |  |  |  |  |  | hydrolysis of the prodrug (release of the active drug) [4]: demonstrated |
| C[C@@H]1C[C@H]2[C@@H]3CCC4=CC(=O)C=C[C@]4(C)[C@@]3(F)[C@@H](O)C[C@]2(C)[C@@]1(O)C(=O)CO [dexamethasone, reference compound] | 1 | 1 | 0.5 | 0 | 0 | 2 | 1.5 | 6 | 2 | 1.5 | 1 | 1 | 1.5 | 1.5 | 1 | 9.5 | 3 | 3 | 2 | 0 | Globlet cell ([1]; proximal colon): 0; Inflamm ([1]; proximal colon): 1.5; Mitotic Act. ([1]; proximal colon): 1.5; Total Score ([1]; proximal colon): 11; histological score, distal colon [3]: 17 |
| C[C@]12C=CC(=O)C=C1CC[C@@H]1[C@@H]2[C@@H](O)C[C@@]2(C)[C@H]1CC[C@]2(O)C(=O)CO[C@@H]1OC(CO)[C@@H](O[C@@H]2OC(CO[C@H]3OC[C@@H](O)C(O)C3O)[C@@H](O[C@@H]3OC(CO[C@H]4OC[C@@H](O)C(O)C4O)[C@@H](O[C@@H]4OC(CO[C@H]5OC[C@@H](O)C(O)C5O)[C@@H](O)C(O)C4O)C(O)C3O)C(O)C2O)C(O)C1O (stereo partly drawn) [XXXG-PRED, XXXG-β-O-prednisolone] | 2 | 2 | 1.5 | 0.5 | 0 | 2.5 | 1.5 | 10 | 1.5 | 1.5 | 1 | 0 | 0.5 | 1 | 1 | 6.5 | 2 | 3 | 2.5 | 0 | caged drugs compared in the distal colon ([1]; distal colon): equal scores; acute inflammation in the proximal and distal colon, histopathologically [1]: ameliorate acute inflammation; efficacy compared with the uncaged drug [1]: greater efficacy than uncaged prednisolone; injury and inflammation intensities, distal colon ([1]; histologic examination): lessened the injury and inflammation intensities; Globlet cell ([1]; proximal colon): 0.5; Inflamm ([1]; proximal colon): 2; Mitotic Act. ([1]; proximal colon): 1.5; Total Score ([1]; proximal colon): 11.5; quantities of interleukin-12p70 (IL-12p70) protein in colonic tissue [2]: significantly lower; histological score, distal colon [3]: 4; efficacy compared with the uncaged drug, histologically [3]: greater efficacy than uncaged prednisolone histologically; colitis in the colon, histopathologically [3]: ameliorate colitis; hydrolysis of the prodrug (release of the active drug) [4]: demonstrated; blood present in ceca (gross observation) [5]: more blood present in ceca than dexamethasone treatment; also recorded: more blood in cecal area; IL-1β concentration in cecal tissue [6, 7]: decreased; TNF-α concentration in cecal tissue [6, 7]: decreased; IL-22 concentration in cecal tissue ([6]; cecal tissue homogenates, n=2): increased; decreasing pro-inflammatory cytokines (IL-1β and TNF-α) and increasing IL-22 in intestinal tissues [6]: more effective than the uncaged drugs |

— patent publication US20220184220A1, “XYLOGLUCAN-CONTAINING PRODRUGS AND METHODS OF MANUFACTURE AND USE THEREOF” (priority 2019, published 2022)
